Laboratory results taken from patent publication US20220160849A1, “CANCER VACCINE FORMULATION” (MIE UNIVERSITY, priority 2019, published 2022).

Test system: mouse melanoma B16F10 cell line expressing TRP2, TRP1, and gp100
Test: Mouse tumor growth test, mouse melanoma B16F10
Type: in vivo, C57BL/6 mouse
Description: A mouse fibrosarcoma CMS5a cell line expressing mERK2, a mouse colorectal cancer cell CT26 cell line expressing AH1 and gp70, or a mouse melanoma B16F10 cell line expressing TRP2, TRP1, and gp100 was subcutaneously transplanted. The CMS5a cell line and the CT26 cell line were each subcutaneously transplanted in an amount of 1×10^6 cultured cells/100 μL/individual to each BALB/c mouse (female: body weight: 15 to 25 g). The B16F10 cell line was subcutaneously transplanted in an amount of […] cultured cells/100 μL/individual to each C57BL/6 mouse (female; body weight: 15 to 25 g). Then, tumor volumes were measured over time.
Each sample of Table 17 was subcutaneously administered with the frequency described in Table 17 to the mouse melanoma B16F10-bearing mice prepared by the method described in Example 5 to conduct a mouse tumor growth test.
Each sample of Table 20 was subcutaneously administered with the frequency described in Table 20 to the mouse melanoma B16F10-bearing mice prepared by the method described in Example 5 to conduct a mouse tumor growth test.
Each sample of Table 21 was subcutaneously administered with the frequency described in Table 21 to the mouse melanoma B16F10-bearing mice prepared by the method described in Example 5 to conduct a mouse tumor growth test.
Each sample of Table 22 was subcutaneously administered with the frequency described in Table 22 to the mouse melanoma B16F10-bearing mice prepared by the method described in Example 5 to conduct a mouse tumor growth test.
Each sample of Table 23 was subcutaneously administered with the frequency described in Table 23 to the mouse melanoma B16F10-bearing mice prepared by the method described in Example 5 to conduct a mouse tumor growth test.

[1] = Example 7-4, FIG. 23, adjuvant (Sting 0.015 mg, R848 0.05 mg) with 99k HA-C6-Chol-42% / TRP2TRP1gp100-6Y 0.05 mg s.c. day 10, 14, 17, 20

Row | Molecule | tumor growth suppressive effect (tumor volume) [1] | tumor growth suppressive effect (tumor volume) (Example 7-3, FIG. 22, adjuvant 0.05 mg with 99k HA-C6-Chol-42% / TRP2TRP1gp100-6Y 0.05 mg s.c. day 10, 14, 17, 21)
1 | CCOCc1nc2c(N)nc3ccccc3c2n1CC(C)(C)O [R848] | high tumor growth suppressive effect | 
2 | polyIC |  | high tumor growth suppressive effect
3 | Nc1nc2c(ncn2C2OC3COP(=O)(S)OC4C(COP(=O)(S)OC2C3O)OC(n2cnc3c(N)ncnc32)C4O)c(=O)[nH]1 (stereo not drawn) [Sting, 2′3′-cGAM(PS)2(Rp/Sp)] | high tumor growth suppressive effect | 
